# Data taken from patent US8664265B2, “Stable dosage forms of spiro and dispiro 1,2,4-trioxolane antimalarials” (Ranbaxy Laboratories Limited, priority 2005, dated 2014).
# How the values were obtained:
# [1] = Compatibility studies of active compound with excipients, forced degradation, total related substances by HPLC; format: physicochemical
# Method: (§1) The role of excipients and water content was evaluated by conducting compatibility studies of active compound with various excipients, in different proportions and evaluating the extent of degradation by forced degradation at 60° C. over the period of 2 weeks and at 50° C. for 4 weeks. The water content was analyzed using Karl Fischer method and the total related substances (% w/w) were determined by HPLC method.
# [2] = Water content by Karl Fischer method in the compatibility studies; format: physicochemical
# Method: as §1
# [3] = with Aerosol, Drug:Excipient 1:0.1
# [4] = with Croscarmellose sodium, Drug:Excipient 1:0.5
# [5] = with Cross povidone, Drug:Excipient 1:0.5
# [6] = with Dicalcium phosphate, Drug:Excipient 1:2^
# [7] = with Dicalcium phosphate, Drug:Excipient 1:10
# [8] = with Hydroxypropyl methylcellulose 5 cps, Drug:Excipient 1:0.5
# [9] = with Mg. Stearate, Drug:Excipient 1:0.1
# [10] = with Micro crystalline cellulose, Drug:Excipient 1:10
# [11] = with Microcrystalline cellulose, Drug:Excipient 1:2^
# [12] = with Opadry ®, Drug:Excipient 1:0.5
# [13] = with Pearlitol, Drug:Excipient 1:2^
# [14] = with Pearlitol, Drug:Excipient 1:10
# [15] = with Polyethylene glycol 400, Drug:Excipient 1:0.1
# [16] = with Polyvinyl pyrrolidone K 30, Drug:Excipient 1:0.5
# [17] = with Sodium lauryl sodium, Drug:Excipient 1:0.5
# [18] = with Sodium starch glycolate, Drug:Excipient 1:0.5
# [19] = with Starch, Drug:Excipient 1:2^
# [20] = with Starch, Drug:Excipient 1:10
# [21] = with Talc, Drug:Excipient 1:0.1
# [22] = with Titanium dioxide, Drug:Excipient 1:0.5
smiles,measurement,setting,value
"CC(C)(N)CNC(=O)C[C@H]1CC[C@]2(CC1)OOC1(O2)C2CC3CC(C2)CC1C3.O=C(O)/C=C\C(=O)O (stereo partly drawn) [Active compound I, cis-adamantane-2-spiro-3′-8′-[[[(2′-amino-2′-methylpropyl)amino]carbonyl]-methyl]-1′,2′,4′-trioxaspiro[4.5]decane hydrogen maleate]",Compatibility with excipient,[1]; Microcrystalline cellulose,most satisfactory results
same,Compatibility with excipient,"[1]; Starch, when used in higher amounts",incompatible
same,Compatibility with excipient,"[1]; dicalcium phosphate, at 60° C.",increase in related substances
same,Compatibility with excipient,"[1]; lactose, degradation by other mechanisms such as Maillard reaction",incompatible
same,Total Related Substance (% w/w) After 2 weeks/60° C.,[1]; [3],0.86 % w/w
same,Total Related Substance (% w/w) After 4 weeks/50° C.,[1]; [3],0.66 % w/w
same,Total Related Substance (% w/w) Initial,[1]; [3],0.14 % w/w
same,Total Related Substance (% w/w) After 2 weeks/60° C.,[1]; [4],0.35 % w/w
same,Total Related Substance (% w/w) After 4 weeks/50° C.,[1]; [4],0.34 % w/w
same,Total Related Substance (% w/w) Initial,[1]; [4],0.09 % w/w
same,Total Related Substance (% w/w) After 2 weeks/60° C.,[1]; [5],0.68 % w/w
same,Total Related Substance (% w/w) After 4 weeks/50° C.,[1]; [5],0.40 % w/w
same,Total Related Substance (% w/w) Initial,[1]; [5],0.13 % w/w
same,Total Related Substance (% w/w) After 2 weeks/60° C.,[1]; [6],1.32 % w/w
same,Total Related Substance (% w/w) After 4 weeks/50° C.,[1]; [6],0.77 % w/w
same,Total Related Substance (% w/w) Initial,[1]; [6],0.07 % w/w
same,Total Related Substance (% w/w) After 2 weeks/60° C.,[1]; [7],6.07 % w/w
same,Total Related Substance (% w/w) After 4 weeks/50° C.,[1]; [7],0.61 % w/w
same,Total Related Substance (% w/w) Initial,[1]; [7],0.17 % w/w
same,Total Related Substance (% w/w) After 2 weeks/60° C.,[1]; [8],1.05 % w/w
same,Total Related Substance (% w/w) After 4 weeks/50° C.,[1]; [8],0.70 % w/w
same,Total Related Substance (% w/w) Initial,[1]; [8],0.17 % w/w
same,Total Related Substance (% w/w) After 2 weeks/60° C.,[1]; [9],0.86 % w/w
same,Total Related Substance (% w/w) After 4 weeks/50° C.,[1]; [9],0.65 % w/w
same,Total Related Substance (% w/w) Initial,[1]; [9],0.13 % w/w
same,Total Related Substance (% w/w) After 2 weeks/60° C.,[1]; [10],1.02 % w/w
same,Total Related Substance (% w/w) After 4 weeks/50° C.,[1]; [10],0.78 % w/w
same,Total Related Substance (% w/w) Initial,[1]; [10],0.39 % w/w
same,Total Related Substance (% w/w) After 2 weeks/60° C.,[1]; [11],0.74 % w/w
same,Total Related Substance (% w/w) After 4 weeks/50° C.,[1]; [11],0.70 % w/w
same,Total Related Substance (% w/w) Initial,[1]; [11],0.19 % w/w
same,Total Related Substance (% w/w) After 2 weeks/60° C.,[1]; [12],0.96 % w/w
same,Total Related Substance (% w/w) After 4 weeks/50° C.,[1]; [12],1.85 % w/w
same,Total Related Substance (% w/w) Initial,[1]; [12],0.17 % w/w
same,Total Related Substance (% w/w) After 2 weeks/60° C.,[1]; [13],0.77 % w/w
same,Total Related Substance (% w/w) After 4 weeks/50° C.,[1]; [13],0.72 % w/w
same,Total Related Substance (% w/w) Initial,[1]; [13],0.14 % w/w
same,Total Related Substance (% w/w) After 2 weeks/60° C.,[1]; [14],0.70 % w/w
same,Total Related Substance (% w/w) After 4 weeks/50° C.,[1]; [14],0.46 % w/w
same,Total Related Substance (% w/w) Initial,[1]; [14],0.14 % w/w
same,Total Related Substance (% w/w) After 2 weeks/60° C.,[1]; [15],0.68 % w/w
same,Total Related Substance (% w/w) After 4 weeks/50° C.,[1]; [15],0.66 % w/w
same,Total Related Substance (% w/w) Initial,[1]; [15],0.14 % w/w
same,Total Related Substance (% w/w) After 2 weeks/60° C.,[1]; [16],0.79 % w/w
same,Total Related Substance (% w/w) After 4 weeks/50° C.,[1]; [16],0.33 % w/w
same,Total Related Substance (% w/w) Initial,[1]; [16],0.00 % w/w
same,Total Related Substance (% w/w) After 2 weeks/60° C.,[1]; [17],1.59 % w/w
same,Total Related Substance (% w/w) After 4 weeks/50° C.,[1]; [17],0.92 % w/w
same,Total Related Substance (% w/w) Initial,[1]; [17],0.15 % w/w
same,Total Related Substance (% w/w) After 2 weeks/60° C.,[1]; [18],0.89 % w/w
same,Total Related Substance (% w/w) After 4 weeks/50° C.,[1]; [18],0.43 % w/w
same,Total Related Substance (% w/w) Initial,[1]; [18],0.13 % w/w
same,Total Related Substance (% w/w) After 2 weeks/60° C.,[1]; [19],0.74 % w/w
same,Total Related Substance (% w/w) After 4 weeks/50° C.,[1]; [19],0.60 % w/w
same,Total Related Substance (% w/w) Initial,[1]; [19],0.08 % w/w
same,Total Related Substance (% w/w) After 2 weeks/60° C.,[1]; [20],4.13 % w/w
same,Total Related Substance (% w/w) After 4 weeks/50° C.,[1]; [20],0.60 % w/w
same,Total Related Substance (% w/w) Initial,[1]; [20],0.07 % w/w
same,Total Related Substance (% w/w) After 2 weeks/60° C.,[1]; [21],0.90 % w/w
same,Total Related Substance (% w/w) After 4 weeks/50° C.,[1]; [21],0.63 % w/w
same,Total Related Substance (% w/w) Initial,[1]; [21],0.15 % w/w
same,Total Related Substance (% w/w) After 2 weeks/60° C.,[1]; [22],0.93 % w/w
same,Total Related Substance (% w/w) After 4 weeks/50° C.,[1]; [22],0.57 % w/w
same,Total Related Substance (% w/w) Initial,[1]; [22],0.16 % w/w
same,Water (% w/w),[2]; [3],0.27 % w/w
same,Water (% w/w),[2]; [4],0.59 % w/w
same,Water (% w/w),[2]; [5],3.49 % w/w
same,Water (% w/w),[2]; [6],2.01 % w/w
same,Water (% w/w),[2]; [7],2.14 % w/w
same,Water (% w/w),[2]; [8],1.22 % w/w
same,Water (% w/w),[2]; [9],0.46 % w/w
same,Water (% w/w),[2]; [10],4.94 % w/w
same,Water (% w/w),[2]; [11],3.69 % w/w
same,Water (% w/w),[2]; [12],0.46 % w/w
same,Water (% w/w),[2]; [13],0.02 % w/w
same,Water (% w/w),[2]; [14],0.52 % w/w
same,Water (% w/w),[2]; [15],0.88 % w/w
same,Water (% w/w),[2]; [16],3.02 % w/w
same,Water (% w/w),[2]; [17],0.79 % w/w
same,Water (% w/w),[2]; [18],1.43 % w/w
same,Water (% w/w),[2]; [19],4.73 % w/w
same,Water (% w/w),[2]; [21],0.12 % w/w
same,Water (% w/w),[2]; [22],0.18 % w/w
